Data set [1] can be described thus: Solubility in HEPES buffer by the fluorescence method. The data set is classed as physicochemical. The settings on record: aqueous buffer, HEPES buffer ([HEPES]=20 mM, pH 7.0). As for the experimental part: FIGS. 1A and 1B show normalized absorption (FIG. 1A) and fluorescence (FIG. 1B) spectra of the compound of Chemical Formula 2 in 1,4-dioxane, DMF, ethanol and HEPES buffer ([HEPES]=20 mM, pH 7.0). Light with a wavelength of 365 nm was used for excitation. Solubility of the compound of Chemical Formula 2 in HEPES buffer ([HEPES]=20 mM, pH 7.0) was measured as 4.0 μM by the fluorescence method disclosed in the literature (H. M. Kim and B. R. Cho, Acc. Chem. Res., 2009, 42, 863; M. K. Kim, C. S. Lim, J. T. Hong, J. H. Han, H. Y. Jang, H. M. Kim and B. R. Cho, Angew. Chem., Int. Ed., 2010, 49, 364; J. H. Lee, C. S. Lim, Y. S. Tian, J. H. Han and B. R. Cho, J. Am. Chem. Soc., 2010, 132, 1216; H. M. Kim and B. R. Cho, Chem. Asian J., 2011, 6, 58), which is sufficient for staining of cells.

Data set [2] is described as follows: One-photon and two-photon fluorescence titration with free copper(I) ions. Type of data set: binding. As to conditions: for Kd: HEPES 20 mM, thiourea 100 μM, pH 7.0, 1:1 binding model. As for the experimental part:
Absorption spectra were obtained using a Hewlett-Packard 8453 diode array spectrophotometer and fluorescence spectra were obtained using an Amico-Bowman series 2 luminescence spectrometer equipped with a 1-cm standard quartz cell. Fluorescence quantum yield was determined according to the literature using Coumarin 307 as reference compound (J. N. Demas, G. A. Crosby, J. Phys. Chem. 1971, 75, 991).
FIGS. 2A and 2B show one-photon absorption (FIG. 2A) and fluorescence (FIG. 2B) spectra for the compound of Chemical Formula 2 (2 μM) in the presence of free copper(I) ions (0-360 pM). Referring to FIGS. 2A and 2B, when copper(I) ions were added to the compound of Chemical Formula 2 in HEPES buffer, the fluorescence intensity increased gradually with the concentration of the copper(I) ions, without effect on the absorption spectrum. It may be because the metal ion forms a complex with the compound of Chemical Formula 2 and blocks photoinduced electron transfer (PeT). When the concentration of free copper(I) ion was 360 pM, the fluorescence intensity increased by about 4 times. A similar behavior was also observed for two-photon fluorescence spectra (see FIG. 3).
Dissociation constants (Kd) of the compound of Chemical Formula 2 for one-photon and two-photon processes were calculated from fluorescence titration curves (see FIG. 4) (HEPES buffer was used. [HEPES]=20 mM, [thiourea]=100 μM, pH=7.0).

Data set [3] can be described thus: Reactivity for copper(I) ions compared to competing metal ions (relative fluorescence intensity). The settings on record: compound 2 μM. As for the experimental part:
In FIG. 5, open bars show relative fluorescence intensity of the compound of Chemical Formula 2 (2 μM) resulting from reaction with Na^+, K^+, Mg^2+ and Ca^2+ (1 mM), Hg^2+ (2 μM) and other cations (50 mM) in 20 mM HEPES buffer (pH 7.0) before adding copper(I) ions, and filled bars show relative fluorescence intensity after adding 2 μM copper(I) ions (The cations indicated as numbers below the bars are as follows: (1) Cu^+; (2) Na^+; (3) K^+; (4) Mg^2+; (5) Ca^2+; (6) Mn^2+; (7) Fe^2+, (8) Co^2+; (9) Ni^2+; (10) Cu^2+; (11) Zn^2+; (12) Hg^2+).

Data set [4] is described as follows: One-photon fluorescence intensity at different pH's with and without copper(I) ions. The settings on record: compound 2 μM, HEPES buffer, 0 and 2 μM copper(I) ions, biologically significant pH ranges, excitation 365 nm. The text has this:
Light with a wavelength of 365 nm was used for excitation. […] Thus, from FIG. 5 and FIG. 6, it can be seen that the compound of Chemical Formula 2 according to the present disclosure is capable of detecting copper(I) ions with little interference by pH or other metal ion.

A short description of data set [5]: Two-photon fluorescence spectra in the presence of copper(I) ions (Fd value). Type of data set: physicochemical. The settings on record: at 750 nm, HEPES buffer, 2 μM copper(I) ions. The text has this: Referring to FIG. 7, the two-photon spectrum of the compound of Chemical Formula 2-Cu^+ complex in HEPES buffer indicated an Fd value of 67 GM at 750 nm, more than 13-fold as compared to BODIPY (<5 GM 750 nm). Accordingly, it can be conjectured that a sample stained with the compound of Chemical Formula 2 gives a much brighter two-photon image than one stained with the BODIPY dye.

For the next data set, the system named is HeLa cells. As to the kind of experiment: Two-photon microscopy detection of copper(I) ions in cultured HeLa cells. Type of data set: cell-based. As to conditions: compound 2 μM, 37° C., 20 minutes. The text has this: In order to investigate the applicability of the compound of Chemical Formula 2 in biological cells, copper(I) ions in cultured HeLa cells were detected by two-photon microscopy.

The nature of data set [6]: Dissociation constant for the multiphoton process of the zinc(II) ion-selective probe. Type of data set: binding. The settings on record: Zn(II) ions; read-out: Dissociation constant (KdTP) for the multiphoton process. The text has this: Accordingly, the compound could be used to detect Zn(II) ions in the picomolar (pM) to nanomolar (nM) range by multiphoton microscopy.

This is an account of results in patent publication US20130236922A1, “COPPER(I)-ION SELECTIVE FLUORESCENT PROBE, METHOD FOR PREPARING THE SAME, METHOD FOR DIAGNOSING MALIGNANT DISEASE AND DIAGNOSIS KIT USING THE PROBE” (priority 2011, published 2013).

Take `CCSCCSCCN(CCSCCSCC)c1ccc(NC(=O)CN(C)c2ccc3cc(C(C)=O)ccc3c2)cc1` [Chemical Formula 2]: the solubility – broadly, the concentration that dissolves in the medium under given conditions – in data set [1] was 4 µM. Also, the Kd in data set [2] (read-out: Dissociation constant (Kd) for the copper(I) ion, one-photon process) was 16 ± 2 pM; in data set [2] (read-out: Dissociation constant (Kd) for the copper(I) ion, two-photon process) it was 20 ± 3 pM. Also, the “Increase of fluorescence intensity on adding copper(I) ions” value in data set [2] (free copper(I) ion 360 pM, compound 2 μM, HEPES buffer, one-photon) was “about 4 times”. Moreover, the “Interference by Hg2+” value in data set [3] (Hg2+ 2 μM, 20 mM HEPES pH 7.0) is reported as “only exception”. Moreover, the “Interference by competing metal ions Na+, K+, Mg2+, Ca2+, Mn2+, Fe2+, Co2+, Ni2+, Cu2+, Zn2+” value in data set [3] (20 mM HEPES pH 7.0, before and after adding 2 μM copper(I) ions) is given as “not interfered”. Moreover, in data set [4], the “Dependence of reactivity on pH of reaction solutions” value was “irrelevant of the pH”. For the same compound, the “Fd value of the Cu+ complex” value in data set [5] is 67 GM. Further, the “TPM image of labeled HeLa cells” value with HeLa cells is recorded as “very bright TPM image”.
For `CC(=O)c1ccc2cc(N(C)CC(=O)Nc3ccc(NCCN(Cc4ccccn4)Cc4ccccn4)cc3)ccc2c1` [Preparation Example 2], the Kd in data set [6] stood at 1100 pM.
